According to patent publication US5852007A, “Cysteine and serine protease inhibitors containing D-amino acid at the P2 position, methods of making same, and methods of using same” (priority 1997, dated 1998):
Read-outs that look alike come from different tables or passages of the source. Square brackets hold non-standard residues; d marks the D form. Peptide text beside a SMILES is read from it. * marks the point of attachment. dPhg = N[C@@H](C(=O)O)c1ccccc1; Cbz = O=C(OCc1ccccc1)*; Bn = c1ccc(C*)cc1; Ms = CS(=O)(=O)*

Tests used:
Format in all cases: biochemical
cathepsin B = molecular target: T1, cathepsin B (Homo sapiens, UniProt P07858); experiment: Inhibition of cathepsin B; conditions: for inhibition at 1 µM: read-out: Cat B % I @ 1 uM; for IC50: read-out: Cat B IC50
T1 construct: purchased Calbiochem 219364
Method: (§1) Additionally,the order of reagents added to the plate was altered because both enzymes are constitutively active. Following inhibitor addition to the plates, appropriate 2× concentrated stock dilutions of the enzyme preparations were made in assay buffer and 100 μl added to each well. The assay was initiated by addition of 100 μl of 2× concentrated stock dilution of substrate in assay buffer.

thrombin = molecular target: T2, thrombin (Homo sapiens, UniProt P00734); experiment: Inhibition of thrombin; conditions: read-out: Thrombin % I @ 10 uM
T2 construct: purchased Sigma Chem. Co. T-7009

[1] = molecular target: T3, Recombinant human calpain I (Homo sapiens, UniProt P07384); experiment: Inhibition of calpain I activity; conditions: Table III
T3 construct: made in house
T3 sequence (P07384 1-714): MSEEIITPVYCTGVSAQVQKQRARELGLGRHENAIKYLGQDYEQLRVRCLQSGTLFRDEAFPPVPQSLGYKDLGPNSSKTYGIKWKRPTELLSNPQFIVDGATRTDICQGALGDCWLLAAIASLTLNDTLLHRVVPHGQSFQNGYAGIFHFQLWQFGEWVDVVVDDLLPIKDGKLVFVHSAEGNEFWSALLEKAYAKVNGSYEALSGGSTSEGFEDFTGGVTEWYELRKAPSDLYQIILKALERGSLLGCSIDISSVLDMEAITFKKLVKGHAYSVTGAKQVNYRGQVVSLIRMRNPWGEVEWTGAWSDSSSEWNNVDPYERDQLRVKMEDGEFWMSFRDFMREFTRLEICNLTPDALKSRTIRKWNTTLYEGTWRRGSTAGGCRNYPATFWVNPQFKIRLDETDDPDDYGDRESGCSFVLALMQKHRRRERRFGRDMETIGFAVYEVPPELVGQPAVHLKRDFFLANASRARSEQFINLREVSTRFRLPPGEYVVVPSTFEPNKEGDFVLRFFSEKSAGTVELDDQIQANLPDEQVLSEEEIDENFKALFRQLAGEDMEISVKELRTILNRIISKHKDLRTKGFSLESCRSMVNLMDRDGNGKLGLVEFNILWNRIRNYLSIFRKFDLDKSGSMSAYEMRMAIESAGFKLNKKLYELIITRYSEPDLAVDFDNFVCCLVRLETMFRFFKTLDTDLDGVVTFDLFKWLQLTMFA
Method: To evaluate inhibitory activity, stock solutions (40 times concentrated) of exemplary compounds of the invention were prepared in 100% anhydrous DMSO and 5 μL of each inhibitor preparation were aliquoted into each of three wells of a 96-well plate. Recombinant human calpain I, prepared by the method of Meyer et al. (Biochem. […] To start the reaction, 20 μL of 50 mM CaCl2 in assay buffer was added to all wells of the plate, excepting three, which were used as background signal baseline controls. Substrate hydrolysis was monitored every 5 minutes for a total of 30 minutes. […] Inhibition of calpain I activity was calculated as the percent decrease in the rate of substrate hydrolysis in the presence of inhibitor (VI) relative to the rate in its absence (VO). Comparison between VO and VI was made within the linear range for substrate hydrolysis. For screening, compounds were tested at 10, 1.0, and 0.1 μM. […] The results were plotted as % inhibition versus log inhibitor concentration and the IC50 was calculated from linear regression of the data. Apparent second order rate constants were determined from analysis of reaction progress curves under pseudo-first order conditions. Each determination represents the means of three or more independent single cuvette analyses continually monitored via a Perkin-Elmer LS50B spectrofluorimeter. The rate of inhibition of hydrolysis was obtained by fitting the curve to the exponential equation (1): […]

cathepsin L = molecular target: T4, cathepsin L (Homo sapiens, UniProt P07711); experiment: Inhibition of cathepsin L; conditions: read-out: Cat L % I @ 1 uM
T4 construct: purchased Calbiochem 219402
T4 sequence (P07711 114-288 limits assumed): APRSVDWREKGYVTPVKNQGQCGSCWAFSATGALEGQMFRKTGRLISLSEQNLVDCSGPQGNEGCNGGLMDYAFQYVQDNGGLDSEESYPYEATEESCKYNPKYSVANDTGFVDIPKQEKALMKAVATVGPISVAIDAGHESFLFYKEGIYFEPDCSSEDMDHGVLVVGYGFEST
T4 sequence (P07711 292-333 limits assumed): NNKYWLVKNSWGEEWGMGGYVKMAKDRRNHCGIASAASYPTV
Method: as §1

α-chymotrypsin = molecular target: T5, α-chymotrypsin (Bos taurus, UniProt P00766); experiment: Inhibition of α-chymotrypsin; conditions: read-out: Chymotrypsin % I @ 10 uM
T5 construct: purchased Sigma Chem. Co. C-3142
Method: Additionally, because α-chymotrypsin is not a calcium sensitive enzyme and is constitutively active, following addition of inhibitor stocks to the 96 well plates, 100 μl of a 2-fold concentrated stock of enzyme in dilution buffer was first added and the reaction started by addition of 100 μl of a 2-fold concentrated stock of substrate in assay buffer. Substrate hydrolysis was monitored every 5 minutes up to 30 minutes using a Fluoroskan II ([…]).

Row | Compound | inhibition at 1 µM (cathepsin B; Table III, 1 uM) [%] | IC50 (cathepsin B; Table III) [nM] | inhibition at 10 µM (thrombin; Table III, 10 uM) [%] | IC50 [1] [nM] | inhibition at 0.1 µM [1] [%] | inhibition at 1 µM (cathepsin L; Table III, 1 uM) [%] | inhibition at 10 µM (α-chymotrypsin; Table III, 10 uM) [%] | inhibition at 1 µM (cathepsin B) [%] | inhibition at 10 µM (thrombin) [%] | inhibition at 1 µM (cathepsin L) [%] | inhibition at 10 µM (α-chymotrypsin) [%]
1 | CS(=O)(=O)N[C@@H](C(=O)N[C@H](C=O)Cc1ccccc1)c1ccccc1 [Compound 76] (Ms-[dPhg]-Phe-aldehyde) | 79 | 250 | 1 | 13 | 88 | 90 | 30 | – | – | – | –
2 | CS(=O)(=O)N[C@H](Cc1c[nH]c2ccccc12)C(=O)N[C@H](C=O)Cc1ccccc1 [Compound 77] (Ms-[dW]-Phe-aldehyde) | 90 | – | 0 | 14 | 91 | 93 | 0 | – | – | – | –
3 | CN(Cc1ccccc1)C(=O)C[C@@H](NS(C)(=O)=O)C(=O)N[C@H](C=O)Cc1ccccc1 [Compound 78] | 100 | 6 | 0 | 12 | 94 | 100 | 0 | – | – | – | –
4 | CN(Cc1ccccc1)C(=O)CC[C@@H](NS(C)(=O)=O)C(=O)N[C@H](C=O)Cc1ccccc1 [Compound 79] | 99 | – | 1 | 1000 | 47 | 93 | 8 | – | – | – | –
5 | CS(=O)(=O)N[C@H](CS(=O)(=O)Cc1ccccc1)C(=O)N[C@H](C=O)Cc1ccccc1 [Compound 80] | 99 | 46 | 4 | 15 | 90 | 100 | 8 | – | – | – | –
6 | CCNC(=O)C(=O)[C@H](Cc1ccccc1)NC(=O)[C@@H](COCc1ccccc1)NS(C)(=O)=O [Compound 81] | 73 | – | 0 | 180 | 18 | 100 | 2 | – | – | – | –
7 | CC(C)(C)OC(=O)N[C@H](COCc1ccccc1)C(=O)N[C@H](C=O)Cc1ccccc1 [Compound 82] | 60 | – | 6 | – | 4 | 93 | 8 | – | – | – | –
8 | CN([C@H](COCc1ccccc1)C(=O)N[C@H](C=O)Cc1ccccc1)S(C)(=O)=O [Compound 83] | 62 | – | 7 | 520 | 37 | 53 | 0 | – | – | – | –
9 | CS(=O)(=O)N[C@H](COCc1ccccc1)C(=O)N[C@@H](C=O)Cc1ccccc1 [Compound 84] | 22 | – | 0 | – | 2 | 93 | 0 | – | – | – | –
10 | CC(C)C[C@@H](NC(=O)OCc1ccccc1)C(=O)N[C@H](C=O)Cc1ccccc1 [Compound 85] (Cbz-[dL]-Phe-aldehyde) | – | – | – | 110 | 44 | – | – | 44 | 0 | 89 | 6
11 | CC(C)C[C@@H](NS(C)(=O)=O)C(=O)N[C@H](C=O)Cc1ccccc1 [Compound 86] (Ms-[dL]-Phe-aldehyde) | 78 | – | 0 | 40 | 72 | 100 | 8 | – | – | – | –
12 | CC(C)C[C@@H](C=O)NC(=O)[C@@H](COCc1ccccc1)NS(C)(=O)=O [Compound 88] (Ms-[dS](Bn)-Leu-aldehyde) | 88 | – | 5 | 93 | 40 | 91 | 0 | – | – | – | –
13 | CS(=O)(=O)N[C@H](Cc1ccc(OCc2ccccc2)cc1)C(=O)N[C@H](C=O)Cc1ccccc1 [Compound 89] (Ms-[dY](Bn)-Phe-aldehyde) | 100 | – | 0 | 15 | 82 | 97 | 4 | – | – | – | –
14 | CS(=O)(=O)N[C@H](COCc1ccccc1)C(=O)N[C@H](C=O)Cc1ccc(OCc2ccccc2)cc1 [Compound 90] (Ms-[dS](Bn)-Tyr(Bn)-aldehyde) | 100 | – | 0 | 5 | 99 | 99 | 0 | – | – | – | –
15 | Cc1nn(C)c(Cl)c1S(=O)(=O)N[C@H](COCc1ccccc1)C(=O)N[C@H](C=O)Cc1ccccc1 [Compound 91] | 68 | – | 0 | – | 30 | 100 | 53 | – | – | – | –
16 | CS(=O)(=O)N[C@H](COCc1ccccc1)C(=O)N[C@H](C=O)CCCCNC(=O)OCc1ccccc1 [Compound 92] | 100 | – | 0 | 4 | 100 | 100 | 0 | – | – | – | –
17 | CC(C)(C)OC(=O)NCCCC[C@@H](C=O)NC(=O)[C@@H](COCc1ccccc1)NS(C)(=O)=O [Compound 93] | 99 | – | 0 | 9 | 95 | 100 | 0 | – | – | – | –
18 | O=C[C@H](Cc1ccccc1)NC(=O)[C@@H](COCc1ccccc1)N1C(=O)c2ccccc2C1=O [Compound 94] | 0 | – | 0 | – | 14 | 93 | 1 | – | – | – | –
